According to patent US11034839B2, “Compounds, linked with haptens, for the detection of senescent cells” (THE UNIVERSITY OF MANCHESTER, priority 2016, dated 2021):

Experiments:
[1] = system: HeLa cancer cells and near normal Li-Fraumeni fibroblasts; test: False-positive studies (cell confluency, serum starvation); type: cell-based, human
Text: The in vitro models comprised seven cellular systems. […] The same cellular system was used at early passages that underwent SIPS upon y-irradiation and was compared in relation to non-irradiated counterparts. Another set of models comprised two inducible Saos2 Tet-ON osteosarcoma cell lines carrying p53 and p21^WAF1/Cip1, respectively, two well established effectors of senescence (Georgakopoulou et al., 2013; Galanos et al., 2016). Finally, the U2OS-E2F1 ER, U205-Cdt1 Tet-ON and HBECs-Cdc6 Tet-ON inducible systems that undergo SIPS due to oncogenic stress signals were also utilized (Petrakis et al., 2016; Liontos et al., 2007; Liontos et al., 2009). Parental cell lines were obtained either directly from ATCC or from collaborating laboratories that generated them. In addition, the human cancer cell line HeLa and near normal Li-Fraumeni fibroblasts (Galanos et al., 2016) were also employed as control cell lines for the specificity of staining of the SBB compounds.

[2] = system: senescent cells in cellular systems, mouse models and human clinical samples; test: Double staining with Ki67, p16INK4A or p21WAF1/Cip1
Experimental: (§1) • 1. Compound (LG13) • 2. 100% ethanol (100% EtOH) • 3. Parafilm • 4. Fritted glass filter of medium porosity • 5. Airtight Dye Container 2.2.2 General Procedure: • 1. Dissolve 40 mg of the compound (LG13) in 7.4 ml 100% EtOH in a glass beaker and cover it with parafilm. • 2. Incubate at 56° C. in a waterbath for 120 min until the compound is completely dissolved. 2.3. General Method for Compound (LG13) Staining 2.3.1 Materials: • 1. Xylene • 2. […] Syringe • 4. 13 mm filter, membrane 0.22 μm • 5. Soft paper (dry or dipped in ethanol) • 6. Anti-biotin antibody ([Hyb-8] ab201341, Abcam) • 7. Ultravision Quanto Detection System HRP DAB kit (Cat no: TL-125-QHD) • 8. Glycerol (Sigma-Aldrich) • 9. Tris Buffered Saline (TBS; 10×): 1.5 M NaCl, 0.1 M Tris-HCl, pH 7.4. Store at 4° C. • 10. 0.5% Triton X/TBS: 0.5 ml Triton X diluted in 99.5 ml TBS • 11. Mounting media Glycergel (DakoCytomation). • 12. Light Microscope • 13. Anti-p21^WAF1/Cip1 mouse primary antibody [(F-5)(sc-6246) Santa-Cruz] • 14. Anti-p16^INK4A mouse primary antibody [(sc-74401) Santa-Cruz] • 15. Anti-Ki67 rabbit polyclonal antibody [ab16667, Abcam] • 16. Secondary goat anti-mouse antibody Alexa Fluor 568 conjugated [Thermo Fisher Scientific (Cat no: A-11004)] • 17. DAPI (4′,6-Diamidino-2-Phenylindole, Dihydrochloride) [Thermo Fisher Scientific (Cat no: D1306)] • 18. Fluorescence microscope 2.3.2 General Procedures: 2.3.2.1 General Staining Protocol for Cells Mounted on Coverslips • 1. Wash ×1 in TBS for 5 min at RT. • 2. Block the endogenous hydrogen peroxidase, using the UltraVision Hydrogen Peroxide Block included in the Ultravision Quanto Detection System HRP DAB kit (Cat no: TL-125-QHD) for 10 min at RT and in dark conditions. • 3. Wash ×2 in TBS for 30 sec and ×1 for 5 min at RT. • 4. Wash ×1 in EtOH 50% for 5 min at RT. • 5. Wash ×1 EtOH 70% for 5 min at RT. • 6. […] The staining reaction is monitored under the light microscope until detection of the signal (average time 5-8 min). • 8. […] The staining reaction is monitored under the light microscope until detection of the dark brown signal (average time 30 sec-1 min) at RT 1. • 20. […]

[3] = system: senescent cells in U2OS hCdt1 Tet-ON cell line, palbociclib-induced human melanoma xenograft mouse model, irradiated human breast tissue; test: Hybrid histo-/immunochemical assay (HIC) compared with SBB histochemical stain (HC)
Experimental: as §1, with “Anti-p16^INK4A mouse primary antibody [(sc-74401) Santa-Cruz] • 15. Anti-Ki67 rabbit polyclonal antibody [ab16667, Abcam] • 16. Secondary goat anti-mouse antibody Alexa Fluor 568 conjugated [Thermo Fisher Scientific (Cat no: A-11004)] • 17. DAPI (4′,6-Diamidino-2-Phenylindole, Dihydrochloride) [Thermo Fisher Scientific (Cat no: D1306)] • 18.” left out, “1.” for “1. Wash ×1 in TBS for 5 min at RT. • 2. Block the endogenous hydrogen peroxidase, using the UltraVision Hydrogen Peroxide Block included in the Ultravision Quanto Detection System HRP DAB kit (Cat no: TL-125-QHD) for 10 min at RT and in dark conditions. • 3. Wash ×2 in TBS for 30 sec and ×1 for 5 min at RT. • 4. Wash ×1 in EtOH 50% for 5 min at RT. • 5. Wash ×1 EtOH 70% for 5 min at RT. • 6.”

Structure (SMILES): CC1(COC(=O)CCCC[C@H]2SC[C@H]3NC(=O)N[C@H]32)Nc2cccc3c(/N=N/c4ccc(/N=N/c5ccccc5)c5ccccc45)ccc(c23)N1 (stereo partly drawn) [LG13, (2-methyl-6-((E)-(4-((E)-phenyldiazenyl)naphthalen-1-yl)diazenyl)-2,3-dihydro-1H-perimidin-2-yl)methyl 5-((3aR,4R,6aS)-2-oxohexahydro-1H-thieno[3,4-d]imidazol-4-yl)pentanoate]
- staining under cell confluency ([1]; HeLa and Li-Fraumeni fibroblasts, FIG. 17): Negative
- staining of serum starved HeLa cells after formalin fixing and paraffin embedding ([1]; cell block, FIG. 18): negative
- false-positive staining due to serum starvation and cell confluency ([1]; compared with SA-b-gal, FIGS. 17 and 18): deprived of the false-positive staining disadvantages
- staining after serum starvation ([1]; in comparison to SA-β-gal that gave positive signal, FIG. 18): Negative
- relationship between Ki67 expression and compound staining ([2]; double staining in cell culture systems and human clinical samples, FIG. 11): Strict inverse relationship
- compound staining of senescent cells with nuclear p16INK4A or p21WAF1/Cip1 expression ([2]; irradiated DLFs, induced Saos2-p21 Tet-ON, K-rasV12 mouse lung adenoma, irradiated human breast samples, FIG. 12i): concurrently positive
- relationship between nuclear Ki67 positivity and compound staining ([2]; lung sections, mouse bleomycin-induced lung fibrosis, FIG. 12ii): strict inverse relationship
- IHC staining relative to SBB HC staining ([3]; U2OS hCdt1 Tet-ON, palbociclib melanoma xenograft, irradiated human breast tissue, FIG. 14 ai, bi, ci): superiority
- senescence detection using the HIC assay ([3]; additional cellular systems, mouse models, human clinical samples, FIG. 14 aii, bii, cii): sensitive senescence detection
